What follows are molecules tested on U2OS_Bim cells (assay: Apoptosis inhibition assay (Bim-induced apoptosis, cell viability by ATP level)). Details: not given.
Type: cell-based
How it was run: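 Apoptosis was triggered by doxycycline (0.1 μg/mL) induction of Bim, one hour after compound addition to U2OS_Bim cells. Survival was measured after 24 h from cellular ATP (CellTiter-Glo), relative to DMSO, with zVAD at 20 μM as rescue control. Data are duplicate means, some estimated from preliminary results.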

Compound	EC50
CS(=O)(=O)c1nc(-c2ccc(=O)n(Cc3ccccc3)c2)cc(C(F)(F)F)n1 [Compound 103, 1-Benzyl-5-(2-(methylsulfonyl)-6-(trifluoromethyl)pyrimidin-4-yl)pyridin-2 (1H)-one]	1000 to 10000 nM

Same assay, conditions: U2OS_Bim cells; estimated (*Est.) / preliminary results; numbering of Tables 4a/4b; read-out: EC50

Compound	EC50
Cc1cc(-c2cc(F)c(=O)n(Cc3ccc4c(c3)N(C)CCN4C)c2)nc(S(=O)(=O)CCC(OCc2ccccc2F)c2ccccc2)n1 (stereo not shown) [Compound 347]	1 to 1000 nM
Cc1cc(-c2cc(F)c(=O)n(Cc3cccc(N(C)C)c3)c2)nc(S(=O)(=O)CCC(OCc2ccccc2F)c2ccccc2)n1 (stereo not shown) [Compound 339]	1 to 1000 nM
Cc1cc(-c2cc(F)c(=O)n(Cc3ccc4c(c3)NCCO4)c2)nc(S(=O)(=O)CCC(OCc2ccccc2F)c2ccccc2)n1 (stereo not shown) [Compound 359]	1 to 1000 nM
Cc1cc(-c2cc(F)c(=O)n(Cc3ccc4c(c3)OCO4)c2)nc(S(=O)(=O)CCC(OCc2ccccc2F)c2ccc3ccn(C)c3c2)n1 (stereo not shown) [Compound 392]	1 to 1000 nM
Cc1cc(-c2cc(F)c(=O)n(Cc3ccc4c(c3)NCCN4)c2)nc(S(=O)(=O)CCC(OCc2ccccc2F)c2ccccc2)n1 (stereo not shown) [Compound 346]	1 to 1000 nM
Cc1cc(-c2cc(F)c(=O)n(Cc3ccc4c(c3)OCO4)c2)nc(S(=O)(=O)CCC(OCc2ccco2)c2ccccc2)n1 (stereo not shown) [Compound 407]	1 to 1000 nM

Same assay, conditions: U2OS_Bim cells; estimated based on preliminary results; numbering of Tables 4a/4b; read-out: EC50

Compound	EC50
CCC(F)(F)c1cc(-c2ccc(=O)n(Cc3ccc(OC)c(OC)c3)c2)nc(S(C)(=O)=O)n1 [Compound 270, 5-(6-(1,1-difluoropropyl)-2-(methylsulfonyl)pyrimidin-4-yl)-1-(3,4-dimethoxybenzyl)pyridin-2 (1H)-one]	< 10000 nM
COc1ccc(Cn2cc(-c3cc(-c4ccc[nH]4)nc(S(C)(=O)=O)n3)ccc2=O)cc1OC [Compound 204]	< 10000 nM
COc1ccc(Cn2cc(-c3cc(-c4ccc[nH]4)nc([S+](C)[O-])n3)ccc2=O)cc1OC (stereo not shown) [Compound 205]	< 10000 nM
C[S+]([O-])c1nc(-c2ccc(=O)n(Cc3ccc4c(c3)NCCN4)c2)cc(C(F)(F)F)n1 (stereo not shown) [Compound 235]	< 10000 nM
CS(=O)(=O)c1nc(-c2ccc(=O)n(Cc3ccc4c(c3)OCCO4)c2)cc(C(F)(F)F)n1 [Compound 230]	< 10000 nM
COc1ccc(Cn2cc(-c3cc(C(F)F)nc([S+](C)[O-])n3)ccc2=O)cc1OC (stereo not shown) [Compound 202, 5-(6-(difluoromethyl)-2-(methylsulfinyl)pyrimidin-4-yl)-1-(3,4-dimethoxybenzyl)pyridin-2 (1H)-one]	< 10000 nM
COc1ccc(Cn2cc(-c3cc(-n4cccn4)nc([S+](C)[O-])n3)ccc2=O)cc1OC (stereo not shown) [Compound 220]	< 10000 nM
COc1ccc(Cn2cc(-c3cc(C4=CCC=C4)nc(S(C)(=O)=O)n3)ccc2=O)cc1OC [Compound 208]	< 10000 nM
COc1ccc(Cn2cc(-c3cc(-c4ncco4)nc(S(C)(=O)=O)n3)ccc2=O)cc1OC [Compound 211]	< 10000 nM

Same assay, conditions: U2OS_Bim cells; means of duplicates; numbering of Tables 4a/4b; read-out: EC50

Compound	EC50
Cc1cc(-c2cc(F)c(=O)n(Cc3ccc(Cl)c(Cl)c3)c2)nc([S+]([O-])CCC(OCc2ccc(F)cc2F)c2ccccc2)n1 (stereo not shown) [Compound 315, 1-(3,4-dichlorobenzyl)-5-(2-(3-(2,4-difluorobenzyloxy)-3-phenylpropylsulfinyl)-6-methylpyrimidin-4-yl)-3-fluoropyridin-2 (1H)-one]	< 100000 nM
CN(C)c1cc(-c2cccs2)nc([S+](C)[O-])n1 (stereo not shown) [Compound 42, N,N-dimethyl-2-(methylsulfinyl)-6-(thiophen-2-yl)pyrimidin-4-amine]	< 100000 nM
CS(=O)(=O)c1nc(-c2ccc[nH]c2=O)cc(C(F)(F)F)n1 [Compound 80, 3-(2-(methylsulfonyl)-6-(trifluoromethyl)pyrimidin-4-yl)pyridin-2 (1H)-one]	< 100000 nM
COc1cccc(Cn2ccc(-c3cc(C(F)(F)F)nc([S+](C)[O-])n3)c2)c1 (stereo not shown) [Compound 90, 4-(1-(3-methoxybenzyl)-1H-pyrrol-3-yl)-2-(methylsulfinyl)-6-(trifluoromethyl)pyrimidine]	< 100000 nM
CS(=O)(=O)c1nc(-c2ccc(=O)n(Cc3ccc(-c4ccccc4)cc3)c2)cc(C(F)(F)F)n1 [Compound 131, 1-([1,1′-biphenyl]-4-ylmethyl)-5-(2-(methylsulfonyl)-6-(trifluoromethyl)pyrimidin-4-yl)pyridin-2 (1H)-one]	1 to 1000 nM
CS(=O)(=O)c1nc(-c2ccc(=O)n(Cc3cccc(C#N)c3)c2)cc(C(F)(F)F)n1 [Compound 118, 3-((5-(2-(methylsulfonyl)-6-(trifluoromethyl)pyrimidin-4-yl)-2-oxopyridin-1 (2H)-yl)methyl)benzonitrile]	1000 to 20000 nM
COc1ccc(Cn2cc(-c3cc(C(F)(F)F)nc(S(=O)(=O)CCC(OCc4ccccc4)c4ccccc4)n3)ccc2=O)cc1OC (stereo not shown) [Compound 281, 5-(2-((3-(benzyloxy)-3-phenylpropyl)sulfonyl)-6-(trifluoromethyl)pyrimidin-4-yl)-1-(3,4-dimethoxybenzyl)pyridin-2 (1H)-one]	1 to 1000 nM
COc1ccc(Cn2cc(-c3cc(C(F)F)nc(S(=O)(=O)CCC(O)c4ccccc4)n3)ccc2=O)cc1F (stereo not shown) [Compound 287, 5-(6-(difluoromethyl)-2-((3-hydroxy-3-phenylpropyl)sulfonyl)pyrimidin-4-yl)-1-(3-fluoro-4-methoxybenzyl)pyridin-2 (1H)-one]	1 to 1000 nM
CS(=O)(=O)c1nc(N=[N+]=[N-])cc(-c2cccs2)n1 [Compound 41, 4-azido-2-(methylsulfonyl)-6-(thiophen-2-yl)pyrimidine]	< 100000 nM
COc1ccc(Cn2cc(-c3cc(C(F)F)nc(S(=O)(=O)CCCS(=O)(=O)c4nc(-c5ccc(=O)n(Cc6ccc(OC)c(OC)c6)c5)cc(C(F)F)n4)n3)ccc2=O)cc1OC [Compound 186, 5,5′-(2,2′-(propane-1,3-diyldisulfonyl)bis(6-(difluoromethyl)pyrimidine-4,2-diyl))bis(1-(3,4-dimethoxybenzyl)pyridin-2 (1H)-one)]	1 to 1000 nM
CS(=O)(=O)c1nc(-c2ccc(=O)n(CCN=[N+]=[N-])c2)cc(C(F)(F)F)n1 [Compound 102, 1-(2-azidoethyl)-5-(2-(methylsulfonyl)-6-(trifluoromethyl)pyrimidin-4-yl) pyridin-2 (1H)-one]	1000 to 10000 nM
CN(C)C(=O)c1cccc(-c2cc(C(F)(F)F)nc(S(C)(=O)=O)n2)c1 [Compound 69, N,N-dimethyl-3-(2-(methylsulfonyl)-6-(trifluoromethyl)pyrimidin-4-yl)benzamide]	1000 to 10000 nM
CS(=O)(=O)c1nc(-c2ccc(=O)n(Cc3ccc(OC(F)(F)F)cc3)c2)cc(C(F)(F)F)n1 [Compound 117, 5-(2-(methylsulfonyl)-6-(trifluoromethyl)pyrimidin-4-yl)-1-(4-(trifluoromethoxy)benzyl)pyridin-2 (1H)-one]	1000 to 20000 nM
CS(=O)(=O)c1nc(-c2ccc(=O)n(Cc3ccc(Cl)cc3F)c2)cc(C(F)(F)F)n1 [Compound 124, 1-(4-chloro-2-fluorobenzyl)-5-(2-(methylsulfonyl)-6-(trifluoromethyl)pyrimidin-4-yl)pyridin-2 (1H)-one]	1 to 1000 nM
CS(=O)(=O)c1nc(-c2ccc(=O)n(Cc3cccc(Cl)c3)c2)cc(C(F)(F)F)n1 [Compound 105, 1-(3-chlorobenzyl)-5-(2-(methylsulfonyl)-6-(trifluoromethyl)pyrimidin-4-yl)pyridin-2 (1H)-one]	1 to 1000 nM
CS(=O)(=O)c1nc(-n2cccn2)cc(C(F)(F)F)n1 [Compound 83, 2-(methylsulfonyl)-4-(1H-pyrazol-1-yl)-6-(trifluoromethyl)pyrimidine]	1000 to 10000 nM

The next lines start with the values.

EC50	Compound
1 to 1000 nM	COc1ccc(Cn2cc(-c3cc(C(F)(F)F)nc(S(=O)(=O)Cc4ccc(-c5ccccc5)cc4)n3)ccc2=O)cc1OC [Compound 140, 5-(2-(([1,1′-biphenyl]-4-ylmethyl)sulfonyl)-6-(trifluoromethyl)pyrimidin-4-yl)-1-(3,4-dimethoxybenzyl)pyridin-2 (1H)-one]
< 100000 nM	COc1ccc(Cn2cc(-c3cc(-c4cccs4)nc([S+]([O-])CCC(OCc4ccccc4)c4ccccc4)n3)ccc2=O)cc1OC (stereo not shown) [Compound 299, 5-(2-((3-(benzyloxy)-3-phenylpropyl)sulfinyl)-6-(thiophen-2-yl)pyrimidin-4-yl)-1-(3,4-dimethoxybenzyl)pyridin-2 (1H)-one]
1 to 1000 nM	COCCS(=O)(=O)c1nc(-c2ccc(=O)n(Cc3ccc(OC)c(OC)c3)c2)cc(C(F)(F)F)n1 [Compound 143]
1 to 1000 nM	COc1ccc(Cn2cc(-c3cc(C(F)F)nc([S+](C)[O-])n3)ccc2=O)cc1C(F)(F)F (stereo not shown) [Compound 170, 5-(6-(difluoromethyl)-2-(methylsulfinyl)pyrimidin-4-yl)-1-(4-methoxy-3-(trifluoromethyl)benzyl)pyridin-2 (1H)-one]
< 100000 nM	COc1ccc(Cn2cc(-c3cc(C(F)(F)F)nc([S+]([O-])CCCC(N)=O)n3)ccc2=O)cc1OC (stereo not shown) [Compound 159, 4-((4-(1-(3,4-dimethoxybenzyl)-6-oxo-1,6-dihydropyridin-3-yl)-6-(trifluoromethyl)pyrimidin-2-yl)sulfinyl)butanamide]
1 to 1000 nM	CCCCCCCS(=O)(=O)c1nc(-c2ccc(=O)n(Cc3ccc(OC)c(OC)c3)c2)cc(C(F)(F)F)n1 [Compound 146, 1-(3,4-dimethoxybenzyl)-5-(2-(heptylsulfonyl)-6-(trifluoromethyl)pyrimidin-4-yl)pyridin-2 (1H)-one]
1 to 1000 nM	COc1ccc(Cn2cc(-c3cc(C(F)(F)F)nc(S(=O)(=O)CCC(=O)N(C)C)n3)ccc2=O)cc1OC [Compound 149, 3-((4-(1-(3,4-dimethoxybenzyl)-6-oxo-1,6-dihydropyridin-3-yl)-6-(trifluoromethyl)pyrimidin-2-yl)sulfonyl)-N,N-dimethylpropanamide]
1 to 1000 nM	COc1ccc(Cn2cc(-c3cc(C(F)F)nc(S(C)(=O)=O)n3)ccc2=O)cc1OC [Compound 160, 5-(6-(difluoromethyl)-2-(methylsulfonyl)pyrimidin-4-yl)-1-(3,4-dimethoxybenzyl)pyridin-2 (1H)-one]

From patent publication US11725000B2, “Apoptosis inhibitors” (National Institute of Biological Sciences, Beijing, priority 2017, dated 2023)
